Data as given in patent publication US20110077237A1, “KINASE INHIBITORS” (VERTEX PHARMACEUTICALS INCORPORATED, priority 2007, published 2011).

Key:
Assay type in all cases: biochemical
PKC theta = PKC theta (Homo sapiens, UniProt Q04759); assay: PKC Theta I coupled-enzyme (NADH absorbance) kinase assay; conditions: 18 nM PKC theta, 240 μM ATP, 30° C., absorbance at 340 nm
Method: (§1) An assay buffer solution was prepared which consisted of 100 mM HEPES (pH 7.5), 10 mM MgCl2, 25 mM NaCl, 0.1 mM EDTA and 0.01% Brij. […] To 60 μL of this enzyme buffer, in a 384 well plate, was added 2 μL of VRT stock solution in DMSO. The mixture was allowed to equilibrate for 10 mins at 30° C. […] Ki values were calculated from initial rate data by non-linear regression using the Prism software package (Prism 4.0a, Graphpad Software, San Diego, Calif.).

PKC delta kinase = PKC delta kinase (Homo sapiens, UniProt Q05655); assay: PKC Delta coupled-enzyme kinase assay; conditions: 46 nM PKC delta, 150 μM ATP, 30° C.; read-out: Ki PKC delta
PKC delta kinase, sequence (Q05655 whole entry): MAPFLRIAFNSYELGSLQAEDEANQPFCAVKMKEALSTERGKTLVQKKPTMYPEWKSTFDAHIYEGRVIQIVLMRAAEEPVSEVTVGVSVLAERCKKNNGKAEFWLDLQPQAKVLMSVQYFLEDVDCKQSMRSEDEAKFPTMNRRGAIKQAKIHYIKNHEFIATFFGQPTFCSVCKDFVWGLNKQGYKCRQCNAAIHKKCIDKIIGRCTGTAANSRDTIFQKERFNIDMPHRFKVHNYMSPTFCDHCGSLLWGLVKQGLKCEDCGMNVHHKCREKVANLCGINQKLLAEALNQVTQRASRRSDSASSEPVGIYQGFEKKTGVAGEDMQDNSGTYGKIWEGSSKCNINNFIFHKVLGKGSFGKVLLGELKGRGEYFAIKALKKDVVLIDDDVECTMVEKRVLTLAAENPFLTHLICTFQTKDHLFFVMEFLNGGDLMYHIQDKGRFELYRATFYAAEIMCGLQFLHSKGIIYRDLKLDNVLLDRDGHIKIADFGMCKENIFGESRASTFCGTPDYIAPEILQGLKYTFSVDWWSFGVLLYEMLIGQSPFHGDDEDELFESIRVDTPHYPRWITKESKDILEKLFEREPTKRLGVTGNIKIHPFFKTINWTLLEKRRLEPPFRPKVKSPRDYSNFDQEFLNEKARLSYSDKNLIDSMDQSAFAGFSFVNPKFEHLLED
Method: as §1, with “To 16” for “To 60”, “added 1” for “added 2”

PKC alpha kinase = PKC alpha kinase (Homo sapiens, UniProt P17252); assay: PKC Alpha coupled-enzyme kinase assay; conditions: 4.5 nM PKC alpha, 130 μM ATP, 30° C.
Method: An assay buffer solution was prepared which consisted of 100 mM HEPES (pH 7.5), 10 mM MgCl2, 25 mM NaCl, 0.1 mM EDTA, 100 μM CaCl2 and 0.01% Brij. […] To 16 μL of this enzyme buffer, in a 384 well plate, was added 1 μL of VRT stock solution in DMSO. The mixture was allowed to equilibrate for 10 mins at 30° C. The enzyme reaction was initiated by the addition of 16 μL stock ATP solution prepared in assay buffer to a final assay concentration of 130 μM. Initial rate data was determined from the rate of change of absorbance at 340 nm (corresponding to stoichiometric consumption of NADH) using a Molecular Devices Spectramax plate reader (Sunnyvale, Calif.) over 15 mins at 30° C. For each Ki determination 12 data points covering the VRT concentration range of 0-20 μM were obtained in duplicate (DMSO stocks were prepared from an initial 10 mM VRT stock with subsequent 1:2 serial dilutions). Ki values were calculated from initial rate data by non-linear regression using the Prism software package (Prism 4.0a, Graphpad Software, San Diego, Calif.).

PKC theta, sequence (Q04759 whole entry): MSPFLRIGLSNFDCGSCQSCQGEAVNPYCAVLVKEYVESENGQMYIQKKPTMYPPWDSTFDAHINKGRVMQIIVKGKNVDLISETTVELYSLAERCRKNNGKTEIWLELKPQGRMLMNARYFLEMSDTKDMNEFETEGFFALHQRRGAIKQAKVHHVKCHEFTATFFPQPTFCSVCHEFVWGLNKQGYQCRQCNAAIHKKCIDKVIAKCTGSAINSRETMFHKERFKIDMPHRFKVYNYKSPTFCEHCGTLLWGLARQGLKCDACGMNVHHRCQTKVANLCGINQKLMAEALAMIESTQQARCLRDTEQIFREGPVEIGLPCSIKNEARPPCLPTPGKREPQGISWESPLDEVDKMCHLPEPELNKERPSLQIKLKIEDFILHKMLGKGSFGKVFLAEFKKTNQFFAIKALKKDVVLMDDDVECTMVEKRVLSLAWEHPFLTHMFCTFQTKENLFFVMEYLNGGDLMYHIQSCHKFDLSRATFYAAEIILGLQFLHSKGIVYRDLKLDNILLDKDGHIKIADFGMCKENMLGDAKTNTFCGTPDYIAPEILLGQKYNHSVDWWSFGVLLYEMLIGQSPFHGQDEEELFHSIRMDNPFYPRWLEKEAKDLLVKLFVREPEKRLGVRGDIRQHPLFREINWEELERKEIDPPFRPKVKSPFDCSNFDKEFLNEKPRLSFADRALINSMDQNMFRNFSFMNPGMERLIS

Row | SMILES | Ki (PKC theta) [µM] | Ki (PKC delta kinase) [µM] | Ki (PKC alpha kinase) [µM]
1 | Nc1ncccc1C(=O)c1cc(N2CCCNCC2)cs1 [compound 84] | 0.5 to 2.8 |  | 
2 | Cc1cccc(C)c1C1CN(c2cccc(C(=O)c3cccnc3N)n2)CCN1 (stereo not drawn) [compound 337] | 0.5 to 2.8 | > 2.8 | 0.5 to 2.8
3 | CN(C)CCN(Cc1ccccc1)c1cccc(C(=O)c2cc(Br)cnc2N)n1 [compound 143] | 0.5 to 2.8 |  | 
4 | CC(C)(C)C(O)C(=O)N1CCCN(c2cccc(C(=O)c3cccnc3N)n2)CC1 (stereo not drawn) [compound 41] | 0.5 to 2.8 | > 2.8 | 
5 | Cc1ccc(C(=O)c2cccnc2N)nc1N1CCCNCC1 [compound 229] | 0.5 to 2.8 |  | 
6 | Nc1ncccc1C(=O)c1cccc(N2CCCN(C(=O)C3CCCCC3)CC2)n1 [compound 38] | 0.5 to 2.8 |  | 
7 | Nc1ncc(Br)cc1C(=O)c1cc(N2CCCNCC2)cs1 [compound 83] | 0.5 to 2.8 |  | 
8 | Nc1ncccc1C(=O)c1ccn(C2CCNCC2)n1 [compound 184] | 0.5 to 2.8 | 0.5 to 2.8 | 0.5 to 2.8
9 | Nc1ncccc1C(=O)c1nc(N2CCNCC2)ccc1Cc1ccccc1 [compound 417] | 0.5 to 2.8 | 0.5 to 2.8 | 0.5 to 2.8
10 | Nc1ncccc1C(=O)c1cccc(N2CCC(N)C2)n1 (stereo not drawn) [compound 85] | 0.5 to 2.8 |  | 
11 | Nc1ncc(Br)cc1C(=O)c1cccc(NCCCN2CCCC2)n1 [compound 177] | 0.5 to 2.8 |  | 
12 | COC(=O)N1CCCN(c2cccc(C(=O)c3cc(Br)cnc3N)n2)CC1 [compound 69] | 0.5 to 2.8 |  | 
13 | Nc1ncccc1C(=O)c1cccc(N2CCCN(C(=O)c3ccccc3)CC2)n1 [compound 32] | 0.5 to 2.8 | > 2.8 | 
14 | CN1CCN(c2cccc(C(=O)c3cccnc3N)n2)CC1 [compound 216] | 0.5 to 2.8 |  | 
15 | CC(C)C[C@H]1CN(c2ccc(-c3cnn(C)c3)c(C(=O)c3cccnc3N)n2)CCN1 [compound 420] | 0.5 to 2.8 | 0.5 to 2.8 | 0.5 to 2.8
16 | Cc1cc(C(=O)c2cccnc2N)nc(N2CCCNCC2)c1 [compound 189] | 0.5 to 2.8 |  | 
17 | CC(C)C[C@H]1CN(c2ccc(C#CC3CC3)c(C(=O)c3cccnc3N)n2)CCN1 [compound 407] | 0.5 to 2.8 | 0.5 to 2.8 | 0.5 to 2.8
18 | CNCCNc1ccc(C(F)(F)F)c(C(=O)c2cccnc2N)n1 [compound 373] | 0.5 to 2.8 | 0.5 to 2.8 | 0.5 to 2.8
19 | Nc1ncc(C2=CCCCC2)cc1C(=O)c1cccc(N2CCCNCC2)n1 [compound 185] | 0.5 to 2.8 |  | 
20 | Nc1ncc(Br)cc1C(=O)c1cccc(NCCN2CCCCC2)n1 [compound 141] | 0.5 to 2.8 |  | 
21 | CC(C)(N)CNc1ccc(C(F)(F)F)c(C(=O)c2cccnc2N)n1 [compound 368] | 0.5 to 2.8 | 0.5 to 2.8 | 0.5 to 2.8
22 | Cc1cc(Nc2ccc(C(F)(F)F)c(C(=O)c3cccnc3N)n2)[nH]n1 [compound 393] | 0.5 to 2.8 | 0.5 to 2.8 | 0.5 to 2.8
23 | Nc1ncccc1C(=O)c1cccc(N2CCC(NC(=O)CC(F)(F)F)CC2)n1 [compound 129] | 0.5 to 2.8 |  | 

Row | SMILES | Ki (PKC theta) [µM] | Ki (PKC delta kinase) [µM] | Ki (PKC alpha kinase) [µM]
24 | CCN(Cc1ccccc1)c1cccc(C(=O)c2cc(Br)cnc2N)n1 [compound 142] | 0.5 to 2.8 |  | 
25 | Nc1ncccc1C(=O)c1cccc(N2CCN[C@H](Cc3ccccc3)C2)n1 [compound 250] | 0.5 to 2.8 |  | 
26 | Nc1ncccc1C(=O)c1cccc(N2CCCN(Cc3ccccc3)CC2)n1 [compound 160] | 0.5 to 2.8 |  | 
27 | Cc1ccc(C(=O)c2cccnc2N)nc1N1CCNCC1 [compound 236] | 0.5 to 2.8 |  | 
28 | Nc1ncc(-c2ccccc2CO)cc1C(=O)c1cccc(N2CCNC(c3ccccc3)C2)n1 (stereo not drawn) [compound 281] | 0.5 to 2.8 |  | 
29 | Nc1ncccc1C(=O)c1nc(NC2CCNC2)ccc1C(F)(F)F (stereo not drawn) [compound 376] | 0.5 to 2.8 | 0.5 to 2.8 | 0.5 to 2.8
30 | Nc1ncccc1C(=O)c1ccnc(N2CCCNCC2)n1 [compound 111] | 0.5 to 2.8 |  | 
31 | Nc1ncccc1C(=O)c1cccc(N2CCCN(C(=O)Oc3ccccc3)CC2)n1 [compound 52] | 0.5 to 2.8 |  | 
32 | COC(=O)N1CCCN(c2cccc(C(=O)c3cccnc3N)n2)CC1 [compound 9] | 0.5 to 2.8 | 0.5 to 2.8 | 
33 | N#CCCN1CCN(c2cccc(C(=O)c3cc(Br)cnc3N)n2)CC1 [compound 96] | 0.5 to 2.8 |  | 
34 | Nc1ncccc1C(=O)c1cccc(N2CCCN(C(=O)Oc3ccccc3Cl)CC2)n1 [compound 15] | 0.5 to 2.8 |  | 
35 | NC(=O)CNc1ccc(C(F)(F)F)c(C(=O)c2cccnc2N)n1 [compound 386] | 0.5 to 2.8 | 0.5 to 2.8 | 0.5 to 2.8
36 | CC(C)N(Cc1ccccc1)C(=O)c1ccc(C(=O)c2cccnc2N)s1 [compound 48] | 0.5 to 2.8 |  | 
37 | Nc1ncccc1C(=O)c1nc(N2CCNCC2)ccc1C#CC1CC1 [compound 409] | 0.5 to 2.8 | 0.5 to 2.8 | 0.5 to 2.8
38 | Nc1ncc(-c2cc3ccccc3[nH]2)cc1C(=O)c1cccc(N2CCCNCC2)n1 [compound 168] | 0.5 to 2.8 |  | 
39 | Nc1ncccc1C(=O)c1cccc(N2CCCN(C(=O)C3CC3)CC2)n1 [compound 36] | 0.5 to 2.8 |  | 
40 | Nc1ncc(-c2ccccc2O)cc1C(=O)c1cccc(N2CCNC(c3ccccc3)C2)n1 (stereo not drawn) [compound 259] | 0.5 to 2.8 |  | 
41 | Nc1ncc(NCc2ccccc2)cc1C(=O)c1cccc(N2CCCNCC2)n1 [compound 190] | 0.5 to 2.8 |  | 
42 | C[C@@H]1CNC[C@H](C)N1c1cccc(C(=O)c2cccnc2N)n1 [compound 234] | 0.5 to 2.8 |  | 
43 | Nc1ncc(Br)cc1C(=O)c1cccc(N2CCCC(c3ccccc3)C2)n1 (stereo not drawn) [compound 145] | 0.5 to 2.8 |  | 
44 | NC(=O)C1CCCN(c2cccc(C(=O)c3cc(Br)cnc3N)n2)C1 (stereo not drawn) [compound 122] | 0.5 to 2.8 |  | 
45 | Nc1ncccc1C(=O)c1nc(N2CCCN(C(=O)CC(F)(F)F)CC2)cs1 [compound 95] | 0.5 to 2.8 |  | 
46 | Nc1ncccc1C(=O)c1csc(N2CCCNCC2)n1 [compound 125] | 0.5 to 2.8 |  | 

Row | SMILES | Ki (PKC theta) [µM] | Ki (PKC delta kinase) [µM] | Ki (PKC alpha kinase) [µM]
47 | Nc1ncc(Br)cc1C(=O)c1cccc(N2CC[C@H](O)C2)n1 [compound 123] | 0.5 to 2.8 |  | 
48 | Nc1ncccc1C(=O)c1cccc(N2CCC(NC3CC3)CC2)n1 [compound 148] | 0.5 to 2.8 |  | 
49 | Cc1cn(C2CCCNCC2)nc1C(=O)c1cccnc1N (stereo not drawn) [compound 212] | 0.5 to 2.8 |  | 
50 | CC(C)(O)C(=O)N1CCCN(c2cccc(C(=O)c3cccnc3N)n2)CC1 [compound 19] | 0.5 to 2.8 | > 2.8 | 
51 | Nc1ncccc1C(=O)c1cccc(N2CCCN(C(=O)CC3CCCCC3)CC2)n1 [compound 39] | 0.5 to 2.8 | > 2.8 | 
52 | Nc1ncc(Br)cc1C(=O)c1cccc(N2CCNC(=O)C2)n1 [compound 196] | 0.5 to 2.8 |  | 
53 | Nc1ncccc1C(=O)c1ccc(Cl)c(N2CCCNCC2)n1 [compound 242] | 0.5 to 2.8 |  | 
54 | C=Cc1cnc(N)c(C(=O)c2cccc(N3CCCN(C(=O)OC(C)(C)C)CC3)n2)c1 [compound 60] | 0.5 to 2.8 |  | 
55 | Nc1ncc(-c2cccnc2)cc1C(=O)c1cccc(N2CCNC(c3ccccc3)C2)n1 (stereo not drawn) [compound 275] | 0.5 to 2.8 |  | 
56 | Nc1ncc(Br)cc1C(=O)c1cccc(N2CCN(CCO)CC2)n1 [compound 97] | 0.5 to 2.8 |  | 
57 | CNc1cnc(N)c(C(=O)c2cccc(N3CCCNCC3)n2)c1 [compound 220] | 0.5 to 2.8 |  | 0.5 to 2.8
58 | Nc1ncccc1C(=O)c1cccc(C2CCNCC2)n1 [compound 257] | 0.5 to 2.8 |  | 
59 | CN(Cc1ccccc1)C(=O)c1ccc(C(=O)c2cccnc2N)s1 [compound 103] | 0.5 to 2.8 |  | 
60 | Nc1ncccc1C(=O)c1cc(N2CCNCC2)ncc1F [compound 319] | 0.5 to 2.8 |  | 
61 | Nc1ncccc1C(=O)c1cccc(N2CCN(C(=O)CC(F)(F)F)CC2)n1 [compound 224] | 0.5 to 2.8 |  | 
62 | CC(C)(O)C#Cc1cnc(N)c(C(=O)c2cccc(N3CCCNCC3)n2)c1 [compound 147] | 0.5 to 2.8 |  | 
63 | Nc1ncccc1C(=O)c1cccc(N2CCN[C@@H](Cc3ccccc3)C2)n1 [compound 215] | 0.5 to 2.8 |  | 
64 | Nc1ncccc1C(=O)c1nccc(N2CCNC(c3ccccc3)C2)n1 (stereo not drawn) [compound 341] |  | > 2.8 | > 2.8
65 | Nc1ncc(Br)cc1C(=O)c1cccc(NC[C@H]2CCCC[C@@H]2O)n1 [compound 174] | 0.5 to 2.8 |  | 
66 | CNC1CCN(c2cccc(C(=O)c3cccnc3N)n2)CC1 [compound 159] | 0.5 to 2.8 |  | 
67 | CN(CC(O)c1ccccc1)c1cccc(C(=O)c2cc(Br)cnc2N)n1 (stereo not drawn) [compound 124] | 0.5 to 2.8 |  | 
68 | Nc1ncc(Br)cc1C(=O)c1cccc(N2CCN(C3CCCC3)CC2)n1 [compound 144] | 0.5 to 2.8 |  | 
69 | CCc1ccc(N2CCNC(c3ccccc3)C2)nc1C(=O)c1cccnc1N (stereo not drawn) [compound 350] |  | 0.05 to 0.5 | 0.5 to 2.8
